Where only a bound is given, the exact number is not on record here.

The assay concerns bicistronic HCV replicon (replicon RNA, GenBank Accession No. AJ242654). The assay is described as follows: HCV Replicon Assay. It is filed as cell-based. As to conditions: Hepatitis C virus, 72 h, read-out: Replicon IC50. For orientation: In antiviral work, replicon cells carry a viral genome segment that copies itself.
One may read the IC50 as the concentration that gives 50% inhibition. In the case of `CC(C)(NS(=O)(=O)c1ccc(-c2c(C(=O)O)c3cc(F)c(OC(F)F)cc3n2C2CCCCC2)nc1)C(F)(F)F` [compound 928, 1-cyclohexyl-6-(difluoromethoxy)-5-fluoro-2-{5-[(1,1,1-trifluoro-2-methylpropan-2-yl)sulfamoyl]pyridin-2-yl}-1H-indole-3-carboxylic acid], the half-maximal inhibitory concentration (IC50) was below 500 nM.

As for `N#Cc1c(-c2ncc(S(=O)(=O)NC(CF)CF)cn2)n(C2CCCC2)c2ccc(Cl)cc12` [compound 188, 2-(5-chloro-3-cyano-1-cyclopentyl-1H-indol-2-yl)-N-(1,3-difluoropropan-2-yl)pyrimidine-5-sulfonamide], the IC50 is below 500 nM.

In the case of `Cc1ccc2c(C#N)c(-c3ncc(S(=O)(=O)N[C@@H](C)C4CC4)cn3)n(C3CCC3)c2c1` [compound 202, 2-(3-cyano-1-cyclobutyl-6-methyl-1H-indol-2-yl)-N-[(1S)-1-cyclopropylethyl]pyrimidine-5-sulfonamide], the 50% inhibitory concentration (IC50) is below 500 nM.

Consider `Cc1cc2c(cc1F)c(C#N)c(-c1cc(C)c(S(=O)(=O)N[C@@H](C)C(F)(F)F)cn1)n2-c1ccccn1` [compound 854, 6-[3-cyano-5-fluoro-6-methyl-1-(pyridin-2-yl)-1H-indol-2-yl]-4-methyl-N-[(2S)-1,1,1-trifluoropropan-2-yl]pyridine-3-sulfonamide], for which the IC50 was below 500 nM.

Turning to `CC(C)n1c(-c2ncc(S(=O)(=O)N[C@@H](C)C(F)(F)F)cn2)c(C#N)c2cc(Cl)ccc21` [compound 420, 2-[5-chloro-3-cyano-1-(propan-2-yl)-1H-indol-2-yl]-N-[(2S)-1,1,1-trifluoropropan-2-yl]pyrimidine-5-sulfonamide], the 50% inhibitory concentration (IC50) was in the range of 500 to 2000 nM.

As for `Cc1cc2c(cc1F)c(C#N)c(-c1ccc(S(=O)(=O)NC(C)(C)C(F)(F)F)cn1)n2C1CCOCC1` [compound 750, 6-[3-cyano-5-fluoro-6-methyl-1-(tetrahydro-2H-pyran-4-yl)-1H-indol-2-yl]-N-(1,1,1-trifluoro-2-methylpropan-2-yl)pyridine-3-sulfonamide], the IC50 was below 500 nM.

Turning to `CC(C)NS(=O)(=O)c1ccc(-c2c(C#N)c3ccc(C4CC4)cc3n2C2CC2)nc1` [compound 109, 6-(3-cyano-1,6-dicyclopropyl-1H-indol-2-yl)-N-(propan-2-yl)pyridine-3-sulfonamide], the IC50 was below 500 nM.

Turning to `Cc1cc2c(cc1F)cc(-c1ccc(S(=O)(=O)N[C@@H](C)C(F)(F)F)cn1)n2-c1nncs1` [compound 958, 6-[5-fluoro-6-methyl-1-(1,3,4-thiadiazol-2-yl)-1H-indol-2-yl]-N-[(2S)-1,1,1-trifluoropropan-2-yl]pyridine-3-sulfonamide], the IC50 lay in the range of 500 to 2000 nM.

With `N#Cc1c(-c2ncc(S(=O)(=O)NC(CF)CF)cn2)n(C2CCC2)c2cc(C3CC3)c(F)cc12` [compound 145, 2-(3-cyano-1-cyclobutyl-6-cyclopropyl-5-fluoro-1H-indol-2-yl)-N-(1,3-difluoropropan-2-yl)pyrimidine-5-sulfonamide], the IC50 is below 500 nM.

In the case of `CCc1cc2c(cc1F)c(C(N)=O)c(-c1ccc(S(=O)(=O)N[C@@H](C)C(F)(F)F)cn1)n2-c1ncccc1Cl` [compound 1042, 1-(3-chloropyridin-2-yl)-6-ethyl-5-fluoro-2-(5-{[(2S)-1,1,1-trifluoropropan-2-yl]sulfamoyl}pyridin-2-yl)-1H-indole-3-carboxamide], the 50% inhibitory concentration (IC50) was in the range of 500 to 2000 nM.

Consider `Cc1cc2c(cc1F)c(C(N)=O)c(-c1ccc(S(=O)(=O)NC(C)(C)C)cn1)n2C1CCCC1` [compound 683, 2-[5-(tert-butylsulfamoyl)pyridin-2-yl]-1-cyclopentyl-5-fluoro-6-methyl-1H-indole-3-carboxamide], for which the IC50 was below 500 nM.

As for `CC(C)n1c(-c2ncc(S(=O)(=O)NC(CF)CF)cn2)c(C#N)c2cc(Cl)ccc21` [compound 187, 2-[5-chloro-3-cyano-1-(propan-2-yl)-1H-indol-2-yl]-N-(1,3-difluoropropan-2-yl)pyrimidine-5-sulfonamide], the 50% inhibitory concentration (IC50) is below 500 nM.

As to `[2H][C@@](C)(NS(=O)(=O)c1ccc(-c2c(C#N)c3cc(F)c(CC)cc3n2-c2ncccn2)nc1)C(F)(F)F` [compound 956, 6-[3-cyano-6-ethyl-5-fluoro-1-(pyrimidin-2-yl)-1H-indol-2-yl]-N-[(2S)-1,1,1-trifluoro(2-deuterium)propan-2-yl]pyridine-3-sulfonamide], the IC50 is below 500 nM.

Turning to `C[C@@H](NS(=O)(=O)c1ccc(-c2c(C#N)c3ccc(F)cc3n2C2CCCCC2)nc1)C(F)(F)F` [compound 252, 6-(3-cyano-1-cyclohexyl-6-fluoro-1H-indol-2-yl)-N-[(2R)-1,1,1-trifluoropropan-2-yl]pyridine-3-sulfonamide], the half-inhibitory concentration (IC50) was below 500 nM.

For `COc1ccnc(-n2c(-c3ccc(S(=O)(=O)N[C@@H](C)C(F)(F)F)cn3)c(C#N)c3cc(F)c(C)cc32)n1` [compound 866, 6-[3-cyano-5-fluoro-1-(4-methoxypyrimidin-2-yl)-6-methyl-1H-indol-2-yl]-N-[(2S)-1,1,1-trifluoropropan-2-yl]pyridine-3-sulfonamide], the IC50 was 500 to 2000 nM.

Take `Cc1cc2c(cc1F)c(Cl)c(-c1ccc(S(=O)(=O)N[C@@H](C)C(F)(F)F)cn1)n2-c1nncs1` [compound 972, 6-[3-chloro-5-fluoro-6-methyl-1-(1,3,4-thiadiazol-2-yl)-1H-indol-2-yl]-N-[(2S)-1,1,1-trifluoropropan-2-yl]pyridine-3-sulfonamide]: the IC50 was 2000 to 5000 nM.

On to `[2H][C@@](C)(NS(=O)(=O)c1ccc(-c2c(C#N)c3cc(F)c(C)cc3n2C2CCC2)nc1)C(F)(F)F` [compound 1113, 6-(3-cyano-1-cyclobutyl-5-fluoro-6-methyl-1H-indol-2-yl)-N-[(2S)-1,1,1-trifluoro(2-deuterium)propan-2-yl]pyridine-3-sulfonamide], for which the half-inhibitory concentration (IC50) was below 500 nM.

Turning to `Cc1cc2c(cc1F)c(C#N)c(-c1ccc(S(=O)(=O)N[C@H](C)C(F)(F)F)cn1)n2-c1ncccn1` [compound 695, 6-[3-cyano-5-fluoro-6-methyl-1-(pyrimidin-2-yl)-1H-indol-2-yl]-N-[(2R)-1,1,1-trifluoropropan-2-yl]pyridine-3-sulfonamide], the IC50 was below 500 nM.

Turning to `N#Cc1c(-c2ccc(S(=O)(=O)NC(CF)CF)cn2)n(C2CCCCC2)c2ccc(Cl)cc12` [compound 79, 6-(5-chloro-3-cyano-1-cyclohexyl-1H-indol-2-yl)-N-(1,3-difluoropropan-2-yl)pyridine-3-sulfonamide], the IC50 was below 500 nM.

With `CC(C)NS(=O)(=O)c1cnc(-c2c(C#N)c3ccc(Cl)cc3n2C(C)C)nc1` [compound 156, 2-[6-chloro-3-cyano-1-(propan-2-yl)-1H-indol-2-yl]-N-(propan-2-yl)pyrimidine-5-sulfonamide], the IC50 fell in the range of 500 to 2000 nM.

`Cc1cc2c(cc1F)c(C#N)c(-c1ncc(S(=O)(=O)N[C@@H](C)C(F)(F)F)cn1)n2C1CCCCC1` [compound 679, 2-(3-cyano-1-cyclohexyl-5-fluoro-6-methyl-1H-indol-2-yl)-N-[(2S)-1,1,1-trifluoropropan-2-yl]pyrimidine-5-sulfonamide]: the half-maximal inhibitory concentration (IC50) is below 500 nM.

As to `Cc1nc(NS(=O)(=O)C(C)(C)C)ccc1-c1c(C(=O)O)c2cc(F)c(OC(F)F)cc2n1[C@H](C)C1CC1` [compound 1094, 2-{6-[(tert-butylsulfonyl)amino]-2-methylpyridin-3-yl}-1-[(1R)-1-cyclopropylethyl]-6-(difluoromethoxy)-5-fluoro-1H-indole-3-carboxylic acid], the IC50 is below 500 nM.

Take `Cc1ccc2c(C#N)c(-c3ccc(S(=O)(=O)NC(CF)CF)cn3)n(C3CCC3)c2c1` [compound 82, 6-(3-cyano-1-cyclobutyl-6-methyl-1H-indol-2-yl)-N-(1,3-difluoropropan-2-yl)pyridine-3-sulfonamide]: the IC50 was below 500 nM.

In the case of `COC(=O)c1c(-c2ccc(NS(=O)(=O)C(C)(C)C)nc2)n(C2CCCCC2)c2cc(OCF)c(F)cc12` [compound 1099, methyl 2-{6-[(tert-butylsulfonyl)amino]pyridin-3-yl}-1-cyclohexyl-5-fluoro-6-(fluoromethoxy)-1H-indole-3-carboxylate], the 50% inhibitory concentration (IC50) fell in the range of 500 to 2000 nM.

`CC(C)NS(=O)(=O)c1ccc(-c2c(C#N)c3ccc(OC(F)(F)F)cc3n2C2CCC2)cn1` [compound 26, 5-[3-cyano-1-cyclobutyl-6-(trifluoromethoxy)-1H-indol-2-yl]-N-(propan-2-yl)pyridine-2-sulfonamide]: the concentration for half-maximal inhibition (IC50) was in the range of 500 to 2000 nM.

As for `CCc1cc2c(cc1F)c(C#N)c(-c1ccc(S(=O)(=O)N[C@H](C)C(F)(F)F)cn1)n2-c1ncccn1` [compound 878, 6-[3-cyano-6-ethyl-5-fluoro-1-(pyrimidin-2-yl)-1H-indol-2-yl]-N-[(2R)-1,1,1-trifluoropropan-2-yl]pyridine-3-sulfonamide], the half-inhibitory concentration (IC50) was below 500 nM.

Take `C[C@H](C1CC1)n1c(-c2ccc(NS(=O)(=O)C(C)(C)C)nc2)c(C(=O)O)c2cc(F)c(OC(F)F)cc21` [compound 1084, 2-{6-[(tert-butylsulfonyl)amino]pyridin-3-yl}-1-[(1R)-1-cyclopropylethyl]-6-(difluoromethoxy)-5-fluoro-1H-indole-3-carboxylic acid]: the half-maximal inhibitory concentration (IC50) is below 500 nM.

Regarding `C[C@H](NS(=O)(=O)c1ccc(-c2c(C(N)=O)c3cc(F)ccc3n2-c2ccccn2)nc1)C(F)(F)F` [compound 748, 5-fluoro-1-(pyridin-2-yl)-2-(5-{[(2S)-1,1,1-trifluoropropan-2-yl]sulfamoyl}pyridin-2-yl)-1H-indole-3-carboxamide], the IC50 is below 500 nM.

With `COC(=O)c1c(-c2ccc(S(=O)(=O)NC(C)(C)C)cn2)n(C2CCC2)c2cc(C)c(F)cc12` [compound 770, methyl 2-[5-(tert-butylsulfamoyl)pyridin-2-yl]-1-cyclobutyl-5-fluoro-6-methyl-1H-indole-3-carboxylate], the IC50 is below 500 nM.

For the molecule `Cc1cc2c(cc1F)c(C#N)c(-c1ccc(S(=O)(=O)NC3CC3)cn1)n2C1CCC1` [compound 652, 6-(3-cyano-1-cyclobutyl-5-fluoro-6-methyl-1H-indol-2-yl)-N-cyclopropylpyridine-3-sulfonamide], the IC50 was below 500 nM.

The record behind these values is US8735414B2 (priority 2009, dated 2014).
